# Source: patent US11634389B2 (priority 2018, dated 2023)
# System: Monilinia fructicola isolate
# Assay: Radial mycelial growth on SDHI-amended PDA, Monilinia fructicola isolate (FIG. 4)
# Type: cell-based
# Settings: versus positive control fluxapyroxad
# Experimental: FIG. 4 depicts the fungicidal performance of a compound according to the disclosure (“1831”) against Monilinia fructicola isolate against a blank control, as compared to fluxapyroxad, a commercially available fungicide (“fluxa”).
# The inhibitory effects of these SDHI compounds were evaluated against the various pathogenic isolates grown on half-strength potato dextrose agar (PDA) amended with a given SDHI. SDHIs were formulated as 10,000 ppm stocks in DMSO. Inoculated media were prepared using a ratio of 12 g potato dextrose broth powder to 15 g agar to 1 L of deionized water. Upon autoclaving and cooling to 55° C., the media were inoculated with the SDHI compound of interest (1 mL of 10,000 ppm stock in 1 L media) then poured into plates. This method represented a 10 ppm trial for the SDHI compound. Mycelial plugs were cut from the leading growth of active fungal colonies (supported on full PDA media) and placed mycelia-down in the center of a plate. After an appropriate number of days (3-14 days, depending on pathogen), the radial growth was measured (average of three plates), and reported as the radial mycelial growth or as radial mycelial growth relative to a control. An analogous procedure was employed to determine the EC50 value by varying the concentration of the initial SDHI compound DMSO stock. […]
smiles,measurement,value
Cn1ncc(C(=O)NC23CCC(c4ccccc42)C3(C)C)c1Cl (stereo not shown) [compound 1831],radial growth relative to that seen with fluxapyroxad,about half
